Laboratory results from PMC9157788, “Design, Synthesis, and Apoptosis-Promoting Effect Evaluation of Rhopaladins’ Analog 4-Arylidene-5-Oxopyrrolidine Derivatives” (Frontiers in Chemistry, 2022).
Read-outs that look alike come from different tables or passages of the source.

Legend:
C-33A cells [1] = system: C-33A cells; design: method as in Kong et al., 2021; details: MTT, ref Kong et al., 2021, read-out: Half inhibitory concentration (IC50), C-33A; cited from earlier work
CaSki cells [2] = system: CaSki cells; design: method as in Kong et al., 2021; details: MTT, ref Kong et al., 2021, read-out: Half inhibitory concentration (IC50), CaSki; cited from earlier work
SiHa cells [3] = system: SiHa cells; design: method as in Kong et al., 2021; details: MTT, ref Kong et al., 2021, read-out: Half inhibitory concentration (IC50), SiHa; cited from earlier work
HeLa cells [4] = system: HeLa cells; design: method as in Kong et al., 2021; details: MTT, ref Kong et al., 2021, read-out: Half inhibitory concentration (IC50), HeLa; cited from earlier work
HepG2 cells [5] = system: HepG2 cells; design: method as in Kong et al., 2021; details: MTT, ref Kong et al., 2021, read-out: Half inhibitory concentration (IC50), HepG2; cited from earlier work
7402 cells [6] = system: 7402 cells; design: method as in Kong et al., 2021; details: MTT, ref Kong et al., 2021, read-out: Half inhibitory concentration (IC50), 7402; cited from earlier work
LO2 cells [7] = system: LO2 cells; design: method as in Kong et al., 2021; details: normal liver LO2 cells, MTT; ref Kong et al., 2021; read-out: Half inhibitory concentration (IC50), LO2; cited from earlier work
C-33A cells [8] = experiment: MTT cell viability assay, C-33A; format: cell-based; details: Homo sapiens, 48 h, read-out: Half inhibitory concentration (IC50), C-33A
Protocol: (§1) HepG2 (human epidermoid hepatocellular carcinoma cell), 7402 (human epidermoid hepatocellular carcinoma cell), C-33A (human epidermoid cervical carcinoma cell), and HeLa (human epidermoid cervical adenocarcinoma cell) were incubated in Dulbecco’s modified Eagle’s medium (DMEM), which was purchased from Gibco (Grand Island, NY, United States). SiHa cells (human epidermoid cervical squamous cell carcinoma) were incubated in minimum essential medium (MEM, also from Gibco). CaSki (human epidermoid cervical carcinoma cell) and LO2 (human normal liver cell) were incubated in minimum essential medium (MEM, also from Gibco). All cells were maintained at 37°C in a humidified incubator with 5% carbon dioxide, and the media contained 10% fetal bovine serum (FBS, Corning, United States) and 1% penicillin–streptomycin antibiotic solution (Corning, United States). SiHa and CaSki were bought from the China Center for Type Culture Collection (CCTCC). The other five types of cancer cell lines were obtained from the Experiment Center of Medicine, Sinopharm Dongfeng Hospital, Hubei University of Medicine. The compounds were dissolved in dimethyl sulfoxide (DMSO, MP Biomedicals, United States), and cisplatin was purchased from Aladdin, Shanghai, China. The control (0 μM) group was treated with DMSO only in the same conditions, and the DMSO content in the medium was less than 0.1%.
(§2) Cell viability was measured by a 3-(4,5-dimethylthiazol-2-yl)-2,5-diphenyltetrazolium bromide (MTT, MultiSciences, China) assay. The specific experimental steps referred to our previous research ([Zhu et al., 2020]). For each cell line, cells were digested and seeded in 96-well plates at a density of 1 × 10^3 cells/well. […] Then, the formed formazan crystals were dissolved in DMSO, and the plates were estimated in a […] microplate reader (BioTek Inc., Bio-Tek MQX200) at a wavelength of 490 nm. Optical density (OD) values were obtained, and the inhibition rate and IC50 of each compound on different cells were calculated by GraphPad Prism 8.0.1 software. […]

CaSki cells [9] = experiment: MTT cell viability assay, CaSki; format: cell-based; details: Homo sapiens, Ca-Ski, 48 h, read-out: Half inhibitory concentration (IC50), CaSki
Protocol: as §1, §2

SiHa cells [10] = experiment: MTT cell viability assay, SiHa; format: cell-based; details: Homo sapiens, 48 h, read-out: Half inhibitory concentration (IC50), SiHa
Protocol: as §1, §2

HeLa cells [11] = experiment: MTT cell viability assay, HeLa; format: cell-based; details: Homo sapiens, 48 h, read-out: Half inhibitory concentration (IC50), HeLa
Protocol: as §1, §2

HepG2 cells [12] = experiment: MTT cell viability assay, HepG2; format: cell-based; details: Homo sapiens, 48 h, read-out: Half inhibitory concentration (IC50), HepG2
Protocol: as §1, §2

7402 cells [13] = experiment: MTT cell viability assay, 7402; format: cell-based; details: Homo sapiens, 48 h, read-out: Half inhibitory concentration (IC50), 7402
Protocol: as §1, §2

LO2 cells [14] = experiment: MTT cell viability assay, normal liver LO2; format: cell-based, human; details: Homo sapiens, L02, normal liver LO2 cells, 48 h, read-out: Half inhibitory concentration (IC50), LO2
Protocol: as §1
Cell viability was measured by a 3-(4,5-dimethylthiazol-2-yl)-2,5-diphenyltetrazolium bromide (MTT, MultiSciences, China) assay. The specific experimental steps referred to our previous research ([Zhu et al., 2020]). For each cell line, cells were digested and seeded in 96-well plates at a density of 1 × 10^3 cells/well. After 24 h of culture, the cells were adherent and treated with varying concentrations of RPDPRH (0, 3.125, 6.25, 12.5, 25, 50, and 100 μM). Cells without treatment were used as a solvent control group (0 μM, DMSO) and those with cisplatin treatment served as a positive control. After 48 h of treatment, MTT solution was added and incubated for 4 h. Then, the formed formazan crystals were dissolved in DMSO, and the plates were estimated in a […] microplate reader (BioTek Inc., Bio-Tek MQX200) at a wavelength of 490 nm. Optical density (OD) values were obtained, and the inhibition rate and IC50 of each compound on different cells were calculated by GraphPad Prism 8.0.1 software. Cell inhibition rate (%) = 1− [(OD experimental-OD blank)/(OD control-OD blank)] × 100%.

| IC50 (HeLa cells [11]) | IC50 (HepG2 cells [12]) | melting point | SMILES | IC50 (C-33A cells [1]) | IC50 (CaSki cells [2]) | IC50 (SiHa cells [3]) | IC50 (HeLa cells [4]) | IC50 (HepG2 cells [5]) | IC50 (7402 cells [6]) | IC50 (LO2 cells [7]) | IC50 (C-33A cells [8]) | IC50 (CaSki cells [9]) | IC50 (SiHa cells [10]) | IC50 (7402 cells [13]) | IC50 (LO2 cells [14]) |
| --- | --- | --- | --- | --- | --- | --- | --- | --- | --- | --- | --- | --- | --- | --- | --- |
|  |  |  | N.N.[Cl][Pt][Cl] [Cisplatin, cisplatin, reference compound] | 48.2 µM | 17.5 µM | 37.1 µM | 47.5 µM | 19.3 µM | 48.5 µM | 17.3 µM |  |  |  |  |  |
| > 100 µM | > 100 µM | 209 to 210 °C | O=C1/C(=C/c2ccccc2)CC(/C=C/c2ccccc2)(C(=O)NC2CCCCC2)N1c1ccc(Cl)cc1 (stereo not drawn) [RPDPRI, (2E, 4E)-4-benzylidene-1-(4-chlorophenyl)-N-cyclohexyl-5-oxo-2-styrylpyrrolidine-2-carboxamide] |  |  |  |  |  |  |  | > 100 µM | > 100 µM | > 100 µM | > 100 µM | > 100 µM |
| 44.7 µM | > 100 µM |  | O=C1/C(=C/c2ccc(Cl)cc2)CC(/C=C/c2ccccc2)(C(=O)NC2CCCCC2)N1c1ccc(Cl)cc1 (stereo not drawn) [RPDPRK, (2E, 4E)-4-(4-chlorobenzylidene)-1-(4-chlorophenyl)-N-cyclohexyl-5-oxo-2-styryl pyrrolidine-2-carboxamide] |  |  |  |  |  |  |  | 89.5 µM | 46.4 µM | 67.3 µM | > 100 µM | > 100 µM |
|  |  | 142 to 144 °C | O=C1/C(=C/c2ccccc2)CC(/C=C/c2ccc(Cl)cc2)(C(=O)NC2CCCCC2)N1c1ccc(F)cc1 (stereo not drawn) [RPDPRO, (2E, 4E)-2-(4-chlorostyryl)-4-benzylidene-N-cyclohexyl-1-(4-fluorophenyl)-5-oxopyrrolidine-2-carboxamide] | 5.56 µM | 9.15 µM | 12.5 µM | 21.4 µM | 14.5 µM | 31.2 µM | 86.8 µM |  |  |  |  |  |
